From patent publication US7563462B2, “Methods for modulating eicosanoid metabolism” (The University of Texas MD Anderson Cancer Center, priority 2005, dated 2009)

Key:
PC3 cells [1] = experiment: Eicosanoid add-back to composition-treated PC3 cells; format: cell-based, human
colon (LS174) = experiment: Effect of 13-S-HODE on proliferation, LS174; format: cell-based; details: Homo sapiens, read-out: IC50 (inhibition of cancer cell line growth)
Protocol: (§1) The relative ability of 13-S-HODE to inhibit prostate and colon cancer cell lines with an IC50 of about 3-4 uM. This is of importance when compared to the content of 13-S-HODE in the inventive composition. That is, as shown in Table 2 above there is sufficient 13-S-HODE within the composition to account for inhibition of cell growth. No doubt other factors within the composition also contribute to its ability to inhibit prostate and colon tumor cell growth but the ability of 13-S-HODE within the composition to be able to do this is of obvious interest.

[2] = test system: human tumor prostate (PC3); experiment: Effect of 13-S-HODE on proliferation, PC3; format: cell-based; details: read-out: IC50 (inhibition of cancer cell line growth)
Protocol: as §1

[3] = test system: lung adenocarcinoma (A549); experiment: Effect of 13-S-HODE on proliferation, A549; format: cell-based, human
PC3 cells [4] = experiment: Phosphoprotein analyses of PC3 cell lysates; format: cell-based, human; design: key to Cyclin D1 / Cyclin D3 / Bcl-XL / Bax / Bcl-2 / pAKT / survivin / pRb content / Rb content: ↓ indicates reduction, inhibition, or downregulation; ↑ indicates enhancement, activation, or upregulation; details: nontoxic concentrations
From the text: The data in Table 5 were derived from phosphoprotein analyses of PC3 cell lysates after treatment with nontoxic concentrations of either the inventive compositions or baicalein, a component of Scutellaria. Proteins were separated using gel electrophoresis and then the gel was probed with monoclonal antibodies to the proteins. The antibodies could detect differences in phosphorylation status of the proteins. Gels were then quantified using a densitometer. There are many similarities in the changes in phosphorylation status signaling similar up regulation or down regulation of proteins involved in cell cycle block (e.g. cyclin D1, cyclin D3 and pRB) or proteins associated with apoptosis (e.g. surviving, Bcl-XL and Bcl-2).

PC3 cells [5] = experiment: Cell cycle distribution by flow cytometry; format: cell-based, human
Protocol: The herbal product produces a clear G2/M accumulation of cells that is evident even at concentrations as low as 0.28 ul/ml. At higher concentrations, the G2/M phase is more evident as is a sub G0 peak indicative of apoptosis. Concomitant with the rise in numbers of cells in G2/M there is a progressive concentration-dependent fall of cells in the G1 portion of the cell cycle. Only 10% of control cells are routinely present at the G2/M phase, while treatment with 0.57 ul/ml of the inventive compositions results in greater than 40% of cells in a G2/M block. […] The G2/M percentage of cells is small (small dark shaded peak to the right in the figure. In the second plot (upper right) PC3 cells have been treated with 0.28 ul of the inventive compositions/ml tissue culture media. The size of the G2/M peak increases. The plot in the lower left (0.57 ul of the inventive compositions/ml) and in the lower right (1.14 ul/ml) show an increasing cell cycle block due to increased concentration of the inventive compositions.

PC3 cells [6] = experiment: Cytotoxicity in PC3 cells; format: cell-based, human
12-LOX = target: T1, 12-LOX (Homo sapiens, UniProt P18054); experiment: 12-HETE levels / 12-LOX activity in PC3 cells; format: cell-based; design: key: ↓ indicates reduction, inhibition, or downregulation; ↑ indicates enhancement, activation, or upregulation
T1 construct: endogenous in cells; host or cells: PC3 human prostate cancer cells
T1 sequence (P18054 1-663): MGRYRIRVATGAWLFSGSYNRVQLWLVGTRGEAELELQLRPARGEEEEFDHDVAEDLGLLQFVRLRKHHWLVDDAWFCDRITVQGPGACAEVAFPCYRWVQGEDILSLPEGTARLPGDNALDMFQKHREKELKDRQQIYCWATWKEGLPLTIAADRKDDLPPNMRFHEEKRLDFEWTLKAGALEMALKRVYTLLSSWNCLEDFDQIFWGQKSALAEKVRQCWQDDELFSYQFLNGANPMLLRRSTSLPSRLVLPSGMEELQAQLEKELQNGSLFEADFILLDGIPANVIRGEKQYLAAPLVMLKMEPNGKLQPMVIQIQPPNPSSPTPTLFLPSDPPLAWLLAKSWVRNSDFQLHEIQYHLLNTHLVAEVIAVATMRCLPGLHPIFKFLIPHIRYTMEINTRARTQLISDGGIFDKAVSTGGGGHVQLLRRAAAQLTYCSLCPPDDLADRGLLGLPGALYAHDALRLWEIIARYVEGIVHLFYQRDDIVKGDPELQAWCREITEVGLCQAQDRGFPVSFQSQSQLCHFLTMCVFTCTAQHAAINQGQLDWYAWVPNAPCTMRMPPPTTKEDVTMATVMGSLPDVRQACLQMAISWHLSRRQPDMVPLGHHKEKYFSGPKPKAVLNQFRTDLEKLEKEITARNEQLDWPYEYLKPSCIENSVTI

PC3 cells [7] = experiment: Western blot of 5-LOX, 12-LOX and COX-2 protein in PC3 cells; format: cell-based, human
[8] = growth inhibitory concentrations of the inventive compositions

In the case of `CCCCC/C=C\C/C=C\C/C=C\C=C\[C@@H](O)CCCC(=O)O` [5-HETE], the “cell proliferation after adding the eicosanoid to composition-treated PC3 cells” value (“cell proliferation” for short) (PC3 cells [1]; [8]) is reported as “failed to block cellular proliferation”.

With `CCCCC/C=C\C[C@H](O)/C=C/C=C\C/C=C\CCCC(=O)O` [12-HETE] the “cell proliferation” value (PC3 cells [1]; inventive compositions 1 ul/ml) was “near doubling of cell proliferation”.

With `CCCCCC(O)/C=C/C=C\CCCCCCCC(=O)O` (stereo not drawn) [13-S-HODE, 13-hydroxyoctadeca-9Z, 11E-dienoic acid] the IC50 (colon (LS174)) was 3 to 4 µM, the IC50 [2] was 3 to 4 µM and the “inhibition of cell growth” value [3] was “not lung adenocarcinoma (A549) cell growth”.

For `O=c1cc(-c2ccccc2)oc2cc(O)c(O)c(O)c12` [Baicalein, baicalein], the Bax (PC3 cells [4]) was “↑”, the Bcl-2 (PC3 cells [4]) was “↓” and the Bcl-XL (PC3 cells [4]) was “↓”. For the same molecule, the “Cyclin D1” value (PC3 cells [4]) was “↓”, the “Cyclin D3” value (PC3 cells [4]) was “↓” and the P27 (PC3 cells [4]) was “Strong ↓”. For the same molecule, the Rb content (PC3 cells [4]) was “↑”, the p21 (PC3 cells [4]) was “Strong ↓” and the pAKT (PC3 cells [4]) was “↓”. For the same molecule, the pRb content (PC3 cells [4]) was “↓”, the survivin (PC3 cells [4]) was “↓” and the Cell cycle block (PC3 cells [5]) was “Yes”. The Cytotoxicity (PC3 cells [6]) was “Yes” and the 12-LOX activity (12-LOX) was “↓”.

For `CCCCC[C@H](O)/C=C/[C@H]1[C@H](O)CC(=O)[C@@H]1C/C=C\CCCC(=O)O` [PGE2], the “cell proliferation” value (PC3 cells [1]; [8]) was “failed to block cellular proliferation”.

`CC(c1cc2ccccc2s1)N(O)C(N)=O` (stereo not drawn) [Zileuton] was tested, and the “cellular content of 5-LOX protein (Western blot)” value (PC3 cells [7]) was “did not produce any change in relative 5-LOX enzyme content within cells”.
